Laboratory results: patent US4806642A, “Purine derivatives” (Warner-Lambert Company, priority 1987, dated 1989)

Tests used:
T-cells = experiment: selective cytotoxicity for T-cells in the presence of 2'-deoxyguanosine (standard test, Science, 214, 1137, 1981); format: cell-based; conditions: in the presence of 10 micromoles of 2'-deoxyguanosine
Excerpt: (§1) The same compounds also were found by a standard test (Science, 214, 1137, 1981) to be selectively cytotoxic for T-cells in the presence of 2'-deoxyguanosine at a similar concentration range. For example, 2,8-diamino-9-[(2-hydroxyethoxy)methyl)]-9H-purine-6-ol is selectively cytotoxic to T-cell at a concentration of about 30 micromoles in the presence of 10 micromoles of 2'-deoxyguanosine. Similarly, 2-[(2,8-diamino-6-hydroxy-9H-purin-9-yl)methoxy]-1,3-propanediol is selectively cytotoxic to T-cell at a concentration of about 7 micromoles in the presence of 10 micromoles of 2'-deoxyguanosine. Both compounds were nontoxic to B-cell in the presence of the same amount of 2'-deoxyguanosine. Since T-cells play a central role in immune response, use of the compounds of the invention is contemplated for the immunoregulation of autoimmune diseases such as rheumatoid arthritis, systemic lupus erythematosus, inflammatory bowel disease, cancer, and viral diseases, transplantation, juvenile diabetes, myasthenia gravis, and multiple sclerosis. The present invention thus includes compositions containing a compound of formula 1 in treating disease such as autoimmune disease characterized by abnormal immune response in warmblooded animals. […]

B-cell = experiment: toxicity to B-cell in the presence of 2'-deoxyguanosine; format: cell-based; conditions: in the presence of the same amount (10 micromoles) of 2'-deoxyguanosine
Excerpt: as §1

| Structure (SMILES) | concentration at which selectively cytotoxic to T-cell (T-cells) | toxicity to B-cell (B-cell) |
| --- | --- | --- |
| Nc1nc(O)c2nc(N)n(COC(CO)CO)c2n1 [2-[(2,8-Diamino-6-hydroxy-9H-purin-9-yl)methoxy]-1,3-propanediol] | about 7 micromoles | nontoxic |
| Nc1nc2c(nc(N)n2COCCO)c(=O)[nH]1 [2,8-Diamino-9-[(2-hydroxyethoxy)methyl)]-9H-purin-6-ol] | about 30 micromoles | nontoxic |
